Results taken from ChEMBL document CHEMBL1212786 (Antimicrob Agents Chemother, 2010).

Experiments:
[1] = AUC (0 to infinity) in Sprague-Dawley rat at 5 mg/kg, iv after 24 hrs by LC/MS/MS analysis; format: ADME, organism-based; design: time infinity, dose 5 mg/kg, route intravenous; conditions: plasma
[2] = Oral bioavailability in monkey at 15 mg/kg after 24 hrs by LC/MS/MS analysis; format: ADME, organism-based, Macaca mulatta; conditions: rhesus monkey, in vivo
[3] = Tmax in Sprague-Dawley rat at 20 mg/kg, po by LC/MS/MS analysis; format: ADME, organism-based; design: dose 20 mg/kg, route oral; conditions: in vivo
[4] = tested on: Hepatitis C virus; assay: Antiviral activity against Hepatitis C virus infected in human Huh7ET cells assessed as inhibition of viral replication at 0.02 to 5 uM after 24 hrs by luciferase reporter gene assay; format: functional, Hepacivirus hominis, Huh-7
[5] = Cmax in Sprague-Dawley rat whole blood at 10 mg/kg, po by LC/MS/MS analysis; format: ADME, organism-based; design: dose 10 mg/kg, route oral
[6] = Apparent elimination half life in Sprague-Dawley rat at 2 mg/kg, iv by LC/MS/MS analysis; format: ADME, organism-based; design: dose 2 mg/kg, route intravenous; conditions: in vivo
[7] = target: Cytochrome P450 2D6 (Homo sapiens, UniProt P10635); assay: Inhibition of human recombinant CYP2D6 after 30 mins; format: ADME
[8] = AUC (2 to 24 hrs) in Sprague-Dawley rat whole blood at 10 mg/kg, iv by LC/MS/MS analysis; format: ADME, organism-based; design: time 2-24 hr, dose 10 mg/kg, route intravenous
[9] = tested on: Hepatocyte; assay: Cellular uptake in human hepatocytes assessed per mg of cellular protein association with nonparenchymal fraction at 0.378 uM after 1 hr by LC/MS/MS analysis; format: ADME, cell-based
[10] = tested on: Hepatocyte; assay: Cellular uptake in human hepatocytes assessed per mg of cellular protein association with hepatocyte fraction at 0.378 uM after 1 hr by LC/MS/MS analysis; format: ADME, cell-based
[11] = Systemic clearance in Sprague-Dawley rat at 5 mg/kg, iv after 24 hrs by LC/MS/MS analysis; format: ADME, organism-based; design: dose 5 mg/kg, route intravenous; conditions: in vivo
[12] = AUC (2 to 24 hrs) in Sprague-Dawley rat liver at 30 mg/kg, po by LC/MS/MS analysis; format: ADME, organism-based; design: time upper 24 hr, time lower 2 hr, dose 30 mg/kg, route oral
[13] = Systemic clearance in monkey at 1 mg/kg, iv after 24 hrs by LC/MS/MS analysis; format: ADME, organism-based, Macaca mulatta; design: dose 1 mg/kg, route intravenous; conditions: rhesus monkey, in vivo
[14] = Cmax in Sprague-Dawley rat at 20 mg/kg, po after 24 hrs by LC/MS/MS analysis; format: ADME, organism-based; design: dose 20 mg/kg, route oral; conditions: in vivo
[15] = Oral bioavailability in Sprague-Dawley rat at 10 mg/kg after 24 hrs by LC/MS/MS analysis; format: ADME, organism-based; conditions: in vivo
[16] = tested on: Hepatitis C virus; assay: microbe, parasite or virus in culture; conditions: Huh-7, 120 h
Description: Antiviral activity against Hepatitis C virus infected in human Huh7ET cells assessed as inhibition of viral replication after 120 hrs by RT-PCR analysis

[17] = Apparent elimination half life Sprague-Dawley rat at 5 mg/kg, po after 24 hrs by LC/MS/MS analysis; format: ADME, organism-based; design: dose 5 mg/kg, route oral; conditions: in vivo
[18] = Tmax in monkey at 15 mg/kg, po by LC/MS/MS analysis; format: ADME, organism-based, Macaca mulatta; design: dose 15 mg/kg, route oral; conditions: rhesus monkey, in vivo
[19] = Cmax in Sprague-Dawley rat at 5 mg/kg, po after 24 hrs by LC/MS/MS analysis; format: ADME, organism-based; design: dose 5 mg/kg, route oral; conditions: in vivo
[20] = Apparent volume of distribution in monkey at 1 mg/kg, iv after 24 hrs by LC/MS/MS analysis; format: ADME, organism-based, Macaca mulatta; design: dose 1 mg/kg, route intravenous; conditions: rhesus monkey, in vivo, read-out: Vz
[21] = Cmax in monkey at 1 mg/kg, iv after 24 hrs by LC/MS/MS analysis; format: ADME, organism-based, Macaca mulatta; design: dose 1 mg/kg, route intravenous; conditions: rhesus monkey, in vivo
[22] = Cmax in Sprague-Dawley rat whole blood at 30 mg/kg, po by LC/MS/MS analysis; format: ADME, organism-based; design: dose 30 mg/kg, route oral
[23] = Cmax in monkey at 15 mg/kg, po after 24 hrs by LC/MS/MS analysis; format: ADME, organism-based, Macaca mulatta; design: dose 15 mg/kg, route oral; conditions: rhesus monkey, in vivo
[24] = Cytotoxicity against human Huh7ET cells assessed as lactate dehydrogenase release up to 5 uM after 72 hrs in presence of 10 to 40% human serum; format: cell-based; conditions: huh-7, 72 h
[25] = Systemic clearance in monkey at 1.4 mg/kg, iv after 24 hrs by LC/MS/MS analysis; format: ADME, organism-based, Macaca mulatta; design: dose 1.4 mg/kg, route intravenous; conditions: rhesus monkey, in vivo
[26] = AUC (2 to 24 hrs) in Sprague-Dawley rat liver at 10 mg/kg, iv by LC/MS/MS analysis; format: ADME, organism-based; design: time 2-24 hr, dose 10 mg/kg, route intravenous
[27] = Apparent elimination half life in monkey at 7.5 mg/kg, po after 24 hrs by LC/MS/MS analysis; format: ADME, organism-based, Macaca mulatta; design: dose 7.5 mg/kg, route oral; conditions: rhesus monkey, in vivo
[28] = tested on: Hepatocyte; assay: Cellular uptake in human hepatocytes assessed per mg of cellular protein association with nonparenchymal fraction at 2.27 uM after 1 hr by LC/MS/MS analysis; format: ADME, cell-based
[29] = AUC (0 to infinity) in monkey at 15 mg/kg, po after 24 hrs by LC/MS/MS analysis; format: ADME, organism-based, Macaca mulatta; design: time infinity, dose 15 mg/kg, route oral; conditions: rhesus monkey, plasma
[30] = Tmax in Sprague-Dawley rat at 5 mg/kg, po by LC/MS/MS analysis; format: ADME, organism-based; design: dose 5 mg/kg, route oral; conditions: in vivo
[31] = AUC (0 to infinity) in monkey at 1 mg/kg, iv after 24 hrs by LC/MS/MS analysis; format: ADME, organism-based, Macaca mulatta; design: time infinity, dose 1 mg/kg, route intravenous; conditions: rhesus monkey, plasma
[32] = Cmax in Sprague-Dawley rat at 10 mg/kg, po after 24 hrs by LC/MS/MS analysis; format: ADME, organism-based; design: dose 10 mg/kg, route oral; conditions: in vivo
[33] = Cmax in Sprague-Dawley rat at 5 mg/kg, iv after 24 hrs by LC/MS/MS analysis; format: ADME, organism-based; design: dose 5 mg/kg, route intravenous; conditions: in vivo
[34] = Apparent elimination half life in Sprague-Dawley rat at 5 mg/kg, iv by LC/MS/MS analysis; format: ADME, organism-based; design: dose 5 mg/kg, route intravenous; conditions: in vivo
[35] = tested on: Hepatitis C virus; assay: microbe, parasite or virus in culture; conditions: Huh-7, 24 h
Description: Antiviral activity against Hepatitis C virus infected in human Huh7ET cells assessed as inhibition of viral replication after 24 hrs by luciferase reporter gene assay

[36] = Oral bioavailability in Sprague-Dawley rat at 20 mg/kg after 24 hrs by LC/MS/MS analysis; format: ADME, organism-based; conditions: in vivo
[37] = tested on: Hepatocyte; assay: Cellular uptake in human hepatocytes assessed per mg of cellular protein association with hepatocyte fraction at 2.27 uM after 1 hr by LC/MS/MS analysis; format: ADME, cell-based
[38] = Cytotoxicity against human Huh7ET cells assessed as lactate dehydrogenase release after 72 hrs; format: cell-based, Huh-7
[39] = AUC (0 to infinity) in monkey at 1.4 mg/kg, iv after 24 hrs by LC/MS/MS analysis; format: ADME, organism-based, Macaca mulatta; design: time infinity, dose 1.4 mg/kg, route intravenous; conditions: rhesus monkey, plasma
[40] = Cmax in Sprague-Dawley rat whole blood at 10 mg/kg, iv by LC/MS/MS analysis; format: ADME, organism-based; design: dose 10 mg/kg, route intravenous
[41] = tested on: PBMC; assay: Cytotoxicity against human PBMC at 0.0031 uM after 18 hrs; format: cell-based
[42] = tested on: Hepatitis C virus; assay: microbe, parasite or virus in culture; conditions: Huh-7, 72 h
Description: Antiviral activity against Hepatitis C virus infected in human Huh7ET cells assessed as inhibition of viral replication after 72 hrs by RT-PCR analysis

[43] = AUC (0 to infinity) in Sprague-Dawley rat at 2 mg/kg, iv after 24 hrs by LC/MS/MS analysis; format: ADME, organism-based; design: time infinity, dose 2 mg/kg, route intravenous; conditions: plasma
[44] = tested on: Hepatitis C virus; assay: microbe, parasite or virus in culture; conditions: Huh-7, 48 h
Description: Antiviral activity against Hepatitis C virus infected in human Huh7ET cells assessed as inhibition of viral replication after 48 hrs by luciferase reporter gene assay

[45] = Oral bioavailability in Sprague-Dawley rat at 5 mg/kg after 24 hrs by LC/MS/MS analysis; format: ADME, organism-based; conditions: in vivo
[46] = Oral bioavailability in monkey at 5 mg/kg after 24 hrs by LC/MS/MS analysis; format: ADME, organism-based, Macaca mulatta; conditions: rhesus monkey, in vivo
[47] = Intrinsic clearance in CD1 mouse liver microsomes at 1 uM after 5 to 30 mins by MS analysis in presence of NADPH; format: ADME, Microsome
[48] = Apparent elimination half life in monkey at 5 mg/kg, po after 24 hrs by LC/MS/MS analysis; format: ADME, organism-based, Macaca mulatta; design: dose 5 mg/kg, route oral; conditions: rhesus monkey, in vivo
[49] = Cmax in monkey at 1.4 mg/kg, iv after 24 hrs by LC/MS/MS analysis; format: ADME, organism-based, Macaca mulatta; design: dose 1.4 mg/kg, route intravenous; conditions: rhesus monkey, in vivo

Cytochrome P450 2D6, sequence (P10635 whole entry): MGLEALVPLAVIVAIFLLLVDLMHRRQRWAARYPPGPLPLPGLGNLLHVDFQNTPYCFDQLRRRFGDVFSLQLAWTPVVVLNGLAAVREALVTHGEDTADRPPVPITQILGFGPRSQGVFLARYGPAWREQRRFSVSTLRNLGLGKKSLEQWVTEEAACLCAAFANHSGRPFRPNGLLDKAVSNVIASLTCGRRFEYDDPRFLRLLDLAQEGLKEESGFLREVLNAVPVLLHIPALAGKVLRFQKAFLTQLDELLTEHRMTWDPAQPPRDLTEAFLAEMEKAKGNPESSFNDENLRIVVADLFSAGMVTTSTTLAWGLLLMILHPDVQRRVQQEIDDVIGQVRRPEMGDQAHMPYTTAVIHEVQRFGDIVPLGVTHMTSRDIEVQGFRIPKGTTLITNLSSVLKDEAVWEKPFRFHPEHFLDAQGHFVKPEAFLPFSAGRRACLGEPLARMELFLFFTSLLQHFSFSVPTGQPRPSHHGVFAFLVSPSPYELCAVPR

C/C=C/C[C@@H](C)[C@@H](O)[C@H]1C(=O)N[C@@H](CC)C(=O)N(C)C(SCCN(C)C)C(=O)N(C)[C@@H](CC(C)(C)O)C(=O)N[C@@H](C(C)C)C(=O)N(C)[C@@H](CC(C)C)C(=O)N[C@@H](C)C(=O)N[C@H](C)C(=O)N(C)[C@@H](CC(C)C)C(=O)N(C)[C@@H](CC(C)C)C(=O)N(C)[C@@H](C(C)C)C(=O)N1C (single isomer, unassigned) [SCY 635]
AUC(0-inf) [1]: 37300 ng·h/mL | bioavailability [2]: 11.1% | Tmax [3]: 4 h | inhibition (INH) [4]: 70% | Cmax [5]: 1870 ng/mL | half-life [6]: 26.3 h | IC50 [7]: > 100000 nM | AUC(0-t) [8]: 30500 ng·h/mL | Drug uptake [9]: 0.55 ng/mg | Drug uptake [10]: 1.03 ng/mg | clearance [11]: 2.23 mL/min/kg | AUC(0-t) [12]: 141000 ng·h/mL | clearance [13]: 0.528 mL/min/kg | Cmax [14]: 1760 ng/mL | bioavailability [15]: 23.6% | EC50 [16]: 150 nM | half-life [17]: 19.2 h | Tmax [18]: 2 h | Cmax [19]: 900 ng/mL | Vd [20]: 1.02 L/kg | Cmax [21]: 2560 ng/mL | Cmax [22]: 2220 ng/mL | Cmax [23]: 2430 ng/mL | Activity [24]: Non-toxic | clearance [25]: 0.47 mL/min/kg | AUC(0-t) [26]: 139000 ng·h/mL | half-life [27]: 33.1 h | Drug uptake [28]: 3.16 ng/mg | AUC(0-inf) [29]: 59200 ng·h/mL | Tmax [30]: 4 h | AUC(0-inf) [31]: 31500 ng·h/mL | Cmax [32]: 1400 ng/mL | Cmax [33]: 2990 ng/mL | half-life [34]: 22.2 h | EC50 [35]: 200 nM | bioavailability [36]: 18.9% | Drug uptake [37]: 6.05 ng/mg | CC50 at 72 h [38]: 14200 nM | AUC(0-inf) [39]: 49900 ng·h/mL | Cmax [40]: 3360 ng/mL | Activity [41]: Non-toxic | EC50 [42]: 160 nM | AUC(0-inf) [43]: 22500 ng·h/mL | EC50 [44]: 70 nM | bioavailability [45]: 23.1% | bioavailability [46]: 17.7% | clearance [47]: 9 µL/min/mg | half-life [48]: 24.6 h | Cmax [49]: 2310 ng/mL
